In patent US8324264B1, “Inhibitors of bacterial biofilms and related methods” (Sequoia Sciences, Inc., priority 2011, dated 2012):
Values after ≈ are worked out from the molar mass of the structure shown.

Legend:
P. aeruginosa biofilms = test: Biofilm growth assay (spreading biofilm on semi-solid agar), P. aeruginosa; assay type: cell-based; settings: Pseudomonas aeruginosa, biofilm growth assay, overnight 37° C., vs negative controls; Tables 1-5; read-out: P. aeruginosa: concentration that reduces the area of the spreading biofilm by greater than or equal to 85%
In short: (§1)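 Values are compound concentrations (μg/ml) that cut the spreading-biofilm zone area by ≥85% relative to negative controls after overnight 37 °C growth from 5 μL central inoculum. E. coli plates: LB, 0.6% agar, 0.5% glucose; P. aeruginosa plates: M8 agar plus 0.2% glucose, 100 μM CaCl2, 1 mM MgSO4, 0.5% Casamino acids.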

E. coli biofilms = test: Biofilm growth assay (spreading biofilm on semi-solid agar), E. coli; assay type: cell-based; settings: Escherichia coli, biofilm growth assay, overnight 37° C., vs negative controls; Tables 1-5; read-out: E. coli: concentration that reduces the area of the spreading biofilm by greater than or equal to 85%
In short: as §1

Row | Compound | IC85 (P. aeruginosa biofilms) [µg/mL] | IC85 (E. coli biofilms) [µg/mL] | melting point
1 | CC1(C)CC[C@]2(C(=O)Sc3nnc(N)[nH]3)CC[C@]3(C)C(=C(c4cccnc4)CC4[C@@]5(C)Cc6c(n[nH]c6N)C(C)(C)[C@@H]5CC[C@]43C)[C@@H]2C1 (stereo partly drawn) [Compound 91, (4aS,6aS,6bR,8aR,13aR,15bS)—S-5-Amino-4H-1,2,4-triazol-3-yl 12-amino-2,2,6a,6b,9,9,13a-heptamethyl-15-(pyridin-3-yl)-2,3,4,4a,5,6,6a,6b,7,8,8a,9,11,13,13a,13b,14,15b-octadecahydro-1H-chryseno[1,2-f]indazole-4-a-carbothioate] | 1 (≈ 1.49 µM) | 1 (≈ 1.49 µM) | > 300 °C
2 | CC1(C)CC[C@]2(C(=O)O)CC[C@]3(C)C(=C(c4cc[nH]c4)CC4[C@@]5(C)Cc6c(n[nH]c6N)C(C)(C)[C@@H]5CC[C@]43C)[C@@H]2C1 (stereo partly drawn) [Example 6, (4aS,6aS,6bR,8aR,13aR,15bS)-12-Amino-2,2,6a,6b,9,9,13a-heptamethyl-15-(1H-pyrrol-3-yl)-2,3,4,4a,5,6,6a,6b,7,8,8a,9,11,13,13a,13b,14,15b-octadecahydro-1H-chryseno[1,2-f]indazole-4-a-carboxylic acid] | 0.125 (≈ 0.224 µM) | 0.25 (≈ 0.447 µM) | > 300 °C
3 | CC1(C)CC[C@]2(C(=O)Nc3cc(N)n[nH]3)CC[C@]3(C)C(=CCC4[C@@]5(C)Cc6c(n[nH]c6N)C(C)(C)C5CC[C@]43C)C2C1 (stereo partly drawn) [Compound 69, (4aS,6aS,6bR,13aR)-12-amino-N-(3-amino-1H-pyrazol-5-yl)-2,2,6a,6b,9,9,13a-heptamethyl-2,3,4,4a,5,6,6a,6b,7,8,8a,9,11,13,13a,13b,14,15b-octadecahydro-1H-chryseno[1,2-f]indazole-4-a-carboxamide] | 1 (≈ 1.74 µM) | 1 (≈ 1.74 µM) | > 300 °C
4 | C=CC1=C2[C@@H]3CC(C)(C)CC[C@]3(C(=O)O)CC[C@@]2(C)[C@]2(C)CC[C@H]3C(C)(C)c4n[nH]c(N)c4C[C@]3(C)C2C1 (stereo partly drawn) [Example 13, (4aS,6aS,6bR,8aR,13aR,15bS)-12-Amino-2,2,6a,6b,9,9,13a-heptamethyl-15-vinyl-2,3,4,4a,5,6,6a,6b,7,8,8a,9,11,13,13a,13b,14,15b-octadecahydro-1H-chryseno[1,2-f]indazole-4-a-carboxylic acid] | 0.5 (≈ 0.962 µM) | 1 (≈ 1.92 µM) | > 300 °C
5 | Cn1nc([C@]23CCC(C)(C)CC2C2=CCC4[C@@]5(C)Cc6c(n[nH]c6N)C(C)(C)C5CC[C@@]4(C)[C@]2(C)CC3)cc1N (stereo partly drawn) [Compound 72, (4aS,6aS,6bR,8aR,13aR,15bS)-4-a-(5-Amino-1-methyl-1H-pyrazol-3-yl)-2,2,6a,6b,9,9,13a-heptamethyl-2,3,4,4a,5,6,6a,6b,7,8,8a,9,11,13,13a,13b,14,15b-octadecahydro-1H-chryseno[1,2-f]indazol-12-amine] | 1 (≈ 1.84 µM) | > 2 | 195 to 210 °C (dec.)
